Test results from US4543256A, “(-)-10,1L Methylenedioxy-N-N-propylnoraporphine and methods employing it for inhibiting the effects of epileptic seizures and for prevention and treatment of duodenal ulcers” (Northeastern University, priority 1982, dated 1985).
Structures can show the parent of a compound that is named as a salt.

System: rats
Assay: Catalepsy (maintenance of abnormal posture on bar)
Assay type: in vivo, rat (male Sprague-Dawley)
Settings: i.p.
Experimental: Male Sprague-Dawley (Charles River Labs.) rats (initially 175-200 g) were housed four per cage, with free access to food and water, under controlled lighting (on 7:00 a.m. to 7:00 p.m.), constant temperature 21°-23° C. and controlled humidity (40-50%). Aporphines were administered, as described below, freshly dissolved in 1 mM citric acid mixed with 0.9% (w/v) saline (1:4, vols.); this solvent was also used as a vehicle ("placebo") control. Haloperidol was given in the same medium; 2-diethyl aminoethyl-2,2 diphenylvalerate HCl (SKF-525A) was given in saline.
Catalepsy was assessed as described in detail elsewhere (Campbell and Baldessarini, 1981a; 1981b, Life Sciences 29 1341-46). Briefly, rats were evaluated every 10 min. by timing (stopwatch) their maintenance of an abnormal posture with forelimbs on a 1 cm-diameter steel bar parallel to, and 8 cm above the bench, so that the rat rested on its hindquarters only; 60 sec. was taken as a maximum and nearly all normal untreated rats remained on the bar for less than 5 sec. […]
In all experiments except those which evaluated the time-course of drug effects, rats were given an injection of vehicle and then allowed to rest for 15 min. to adapt to nonspecific arousal effects, prior to a second injection of test agent (or placebo) and immediate behavioral testing. […]

CCCN1CCc2cccc3c2[C@H]1Cc1ccc2c(c1-3)OCO2 [MDO-NPA, (-) 10, 11-methylenedioxy-N-n-propylnoraporphine-HCl]
dose of maximum effect, catalepsy: 0.3 µmol/kg | catalepsy (doses similar to those which inhibited general activity): strong catalepsy
